Here are results for six substances from patent publication US9833497B2, “Human originated EGF domain proteins and use of the same” (CHENGDU SOURCEBIO LIMITED-LIABILITY COMPANY, priority 2013, dated 2017).

The term MIC denotes the least concentration at which growth counts as inhibited. Lower therefore signals inhibition by little substance.

Holding throughout (type): cell-based
Test [1] has as its system Pseudomonas aeruginosa. Nature of the test: MIC against Gram-negative bacteria: Pseudomonas aeruginosa. The settings on record: 5×10^5 CFU/mL. The method in brief: (§1)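 Bacteria grown in LB at 37° C to McFarland 0.5, resuspended and seeded at 5×10^5 CFU/mL in 96-well plates. Purified human EGF-domain proteins two-fold serially diluted, triplicate wells; cultured at 37° C, shaking 175 rpm. MIC = lowest protein concentration with no growth.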

The subject of test [2] is Serratia marcescens. Nature of the test: MIC against Gram-negative bacteria: Serratia marcescens. The settings on record: 5×10^5 CFU/mL. The method in brief: as §1
The test system of test [3] is Aeromonas hydrophila. Nature of the test: MIC against Gram-negative bacteria: Aeromonas hydrophila. The settings on record: 5×10^5 CFU/mL. The essentials:
as §1

For test [4], the system named is E. coli BL21. Nature of the test: MIC against Gram-negative bacteria: E. coli BL21. The settings on record: 5×10^5 CFU/mL. The method in brief:
as §1

Test [5] has as its system Proteus vulgaris. Nature of the test: MIC against Gram-negative bacteria: Proteus vulgaris. The settings on record: 5×10^5 CFU/mL. The method in brief:
as §1

The subject of test [6] is Proteus mirabilis. The experiment in a line: MIC against Gram-negative bacteria: Proteus mirabilis. The settings on record: 5×10^5 CFU/mL. The essentials:
as §1

In test [7] the test system is Enterobacter cloacae. Nature of the test: MIC against Gram-negative bacteria: Enterobacter cloacae. The settings on record: 5×10^5 CFU/mL. The method in brief:
as §1

The subject of test [8] is Klebsiella pneumonia. Nature of the test: MIC against Gram-negative bacteria: Klebsiella pneumonia. The settings on record: 5×10^5 CFU/mL. The method in brief:
as §1

Test [9] relates to Moraxella catarrhalis. The experiment in a line: MIC against Gram-negative bacteria: Moraxella catarrhalis. The settings on record: 5×10^5 CFU/mL. The essentials:
as §1

Test [10] deals with Citrobacter diversus. The experiment in a line: MIC against Gram-negative bacteria: Citrobacter diversus. The settings on record: 5×10^5 CFU/mL. The essentials: as §1
The test system of test [11] is E. coli DH5α. The experiment in a line: Antibacterial activity: MIC and growth curve against E. coli DH5α in 96-well plate. The settings on record: minimal inhibitory concentration against E. coli DH5α; 96-well plate, 5×10^5 CFU/mL, 37° C., judged after 8 h. The method in brief: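 Log-phase DH5α (OD600 about 0.5, 37° C, 185 rpm in LB) was pelleted, resuspended in fresh LB and seeded at 5×10^5 CFU/mL with recombinant protein at 50, 25 and 12.5 μg/mL (two-fold series), in triplicate. Plates were shaken at 175 rpm, 37° C, and OD600 was read every 30 min. MIC was the lowest concentration with no growth.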

The mark [12] stands for this setting: 10 h cultivation at 37° C., two-fold serial dilution.
The mark [13] stands for this setting: P. aeruginosa, 10 h cultivation at 37° C.
Setting [14] is: S. marcescens, 10 h cultivation at 37° C.
Where [15] appears, read: A. hydrophila, 10 h cultivation at 37° C.
Where [16] appears, read: P. vulgaris, 10 h cultivation at 37° C.
[17] abbreviates: P. mirabilis, 10 h cultivation at 37° C.
Setting [18] is: E. cloacae, 10 h cultivation at 37° C.
[19] abbreviates: K. pneumonia, 10 h cultivation at 37° C.
[20] abbreviates: M. catarrhalis, 10 h cultivation at 37° C.
[21] abbreviates: C. diversus, 10 h cultivation at 37° C.

On to “PRT1055 (GADPCLYQNGGCEHICKKRLGTAWCSCREGFMKASDGKTCL; listed as Homo sapiens)”, for which the “MIC P. aeruginosa” value in test [1] (setting [12]) amounted to 12.5 µg/mL. Further, in test [2] (setting [12]), the “MIC S. marcescens” value came to 12.5 µg/mL. In addition, in test [3] (setting [12]), the “MIC A. hydrophila” value stood at 50 µg/mL. Also, the “MIC E. coli BL21” value in [4] (setting [12]) was 50 µg/mL. Further, the “MIC P. vulgaris” value in [5] (setting [12]) worked out at 50 µg/mL. Further, the “MIC P. mirabilis” value in [6] (setting [12]) came out at 25 µg/mL. In test [7] (setting [12]), the “MIC E. cloacae” value worked out at 12.5 µg/mL. In addition, the “MIC K. pneumonia” value in test [8] (setting [12]) came to 50 µg/mL. In addition, the “MIC M. catarrhalis” value in test [9] (setting [12]) stood at 12.5 µg/mL. For the same substance, in test [10] (setting [12]), the “MIC C. diversus” value stood at 25 µg/mL. Moreover, the MIC in test [11] was determined as 12.5 µg/mL.
Turning to “PRT646 (DIDECTQVQHLCSQGRCENTEGSFLCICPAGFMASEEGTNCI; listed as Homo sapiens)”, the “MIC P. aeruginosa” value in test [1] (96-well plate, 37° C., 10 h) worked out at 12.5 µg/mL. Besides, the “MIC S. marcescens” value in [2] (96-well plate, 37° C., 10 h) is 50 µg/mL. For the same substance, the “MIC A. hydrophila” value in [3] (96-well plate, 37° C., 10 h) came out at 25 µg/mL. Moreover, in test [4] (96-well plate, 37° C., 10 h), the “MIC E. coli BL21” value was determined as 12.5 µg/mL. The “MIC P. vulgaris” value in test [5] (96-well plate, 37° C., 10 h) came to 25 µg/mL. Besides, in [6] (96-well plate, 37° C., 10 h), the “MIC P. mirabilis” value was 12.5 µg/mL. Moreover, in test [7] (96-well plate, 37° C., 10 h), the “MIC E. cloacae” value was 12.5 µg/mL. Also, the “MIC K. pneumonia” value in test [8] (96-well plate, 37° C., 10 h) is 12.5 µg/mL. Also, in [9] (96-well plate, 37° C., 10 h), the “MIC M. catarrhalis” value came to 25 µg/mL. Moreover, in test [10] (96-well plate, 37° C., 10 h), the “MIC C. diversus” value was found to be 50 µg/mL. For the same substance, the MIC in test [11] was 12.5 µg/mL.
Regarding “PRT835 (DVDECASSRGGCEHHCTNLAGSFQCSCEAGYRLHEDRRGCS; listed as Homo sapiens)”, the “MIC (μg/mL) P. aeruginosa” value in test [1] (setting [13]) came out at 25 µg/mL. Moreover, in test [2] (setting [14]), the “MIC (μg/mL) S. marcescens” value stood at 25 µg/mL. In addition, in test [3] (setting [15]), the “MIC (μg/mL) A. hydrophila” value came to 25 µg/mL. The “MIC (μg/mL) E. coli BL21” value in [4] (10 h cultivation at 37° C.) was 50 µg/mL. Besides, the “MIC (μg/mL) P. vulgaris” value in test [5] (setting [16]) stood at 12.5 µg/mL. The “MIC (μg/mL) P. mirabilis” value in test [6] (setting [17]) was determined as 50 µg/mL. Besides, in test [7] (setting [18]), the “MIC (μg/mL) E. cloacae” value turned out to be 50 µg/mL. In [8] (setting [19]), the “MIC (μg/mL) K. pneumonia” value was determined as 12.5 µg/mL. Besides, the “MIC (μg/mL) M. catarrhalis” value in [9] (setting [20]) is 25 µg/mL. In test [10] (setting [21]), the “MIC (μg/mL) C. diversus” value was 12.5 µg/mL. The substance also yielded an MIC in [11] of 25 µg/mL.
For the substance “PRT466 (RHTACLSSPCLNGGTCHLIVATGTTVCACPPGFAGRLCN; listed as Homo sapiens)”, the “MIC against P. aeruginosa” value in [1] (96-well plate, 37° C., 10 h) was 12.5 µg/mL. The “MIC against S. marcescens” value in test [2] (96-well plate, 37° C., 10 h) is 12.5 µg/mL. Moreover, the “MIC against A. hydrophila” value in test [3] (96-well plate, 37° C., 10 h) came to 50 µg/mL. Besides, in test [4] (96-well plate, 37° C., 10 h), the “MIC against E. coli BL21” value was 50 µg/mL. Besides, the “MIC against P. vulgaris” value in test [5] (96-well plate, 37° C., 10 h) was determined as 50 µg/mL. The “MIC against P. mirabilis” value in test [6] (96-well plate, 37° C., 10 h) amounted to 12.5 µg/mL. For the same substance, the “MIC against E. cloacae” value in test [7] (96-well plate, 37° C., 10 h) amounted to 12.5 µg/mL. In addition, the “MIC against K. pneumonia” value in test [8] (96-well plate, 37° C., 10 h) came to 50 µg/mL. Further, the “MIC against M. catarrhalis” value in test [9] (96-well plate, 37° C., 10 h) came to 50 µg/mL. The “MIC against C. diversus” value in [10] (96-well plate, 37° C., 10 h) was 12.5 µg/mL. The substance further had a minimal inhibitory concentration (MIC) in test [11] of 12.5 µg/mL.
“PRT820 (YGDNCRHSCLCQNGGTCDPVSGHCACPEGWAGLACE; listed as Homo sapiens)”: the “MIC (μg/mL) P. aeruginosa” value in test [1] (setting [13]) was 12.5 µg/mL. Also, the “MIC (μg/mL) S. marcescens” value in [2] (setting [14]) stood at 25 µg/mL. For the same substance, the “MIC (μg/mL) A. hydrophila” value in [3] (setting [15]) turned out to be 50 µg/mL. The “MIC (μg/mL) E. coli BL21” value in test [4] (10 h cultivation at 37° C.) turned out to be 50 µg/mL. Further, the “MIC (μg/mL) P. vulgaris” value in test [5] (setting [16]) was determined as 12.5 µg/mL. Also, in test [6] (setting [17]), the “MIC (μg/mL) P. mirabilis” value turned out to be 12.5 µg/mL. The “MIC (μg/mL) E. cloacae” value in [7] (setting [18]) was determined as 12.5 µg/mL. Further, in test [8] (setting [19]), the “MIC (μg/mL) K. pneumonia” value came to 50 µg/mL. The “MIC (μg/mL) M. catarrhalis” value in test [9] (setting [20]) was found to be 50 µg/mL. Further, the “MIC (μg/mL) C. diversus” value in test [10] (setting [21]) amounted to 12.5 µg/mL. In [11], this substance came in with an MIC of 12.5 µg/mL.
In the case of “PRT101 (DVDECSSGQHQCDSSTVCFNTVGSYSCRCRPGWKPRHGIPNNQKDTVCE; listed as Homo sapiens)”, the “MIC (μg/mL) P. aeruginosa” value in test [1] (Pseudomonas aeruginosa, 96-well plate, 37° C., 10 h) came to 25 µg/mL. Besides, in test [2] (Serratia marcescens, 96-well plate, 37° C., 10 h), the “MIC (μg/mL) S. marcescens” value stood at 12.5 µg/mL. For the same substance, the “MIC (μg/mL) A. hydrophila” value in test [3] (Aeromonas hydrophila, 96-well plate, 37° C., 10 h) was determined as 50 µg/mL. In addition, the “MIC (μg/mL) E. coli BL21” value in test [4] (96-well plate, 37° C., 10 h) turned out to be 50 µg/mL. Also, the “MIC (μg/mL) P. vulgaris” value in test [5] (Proteus vulgaris, 96-well plate, 37° C., 10 h) is 12.5 µg/mL. In addition, the “MIC (μg/mL) P. mirabilis” value in test [6] (Proteus mirabilis, 96-well plate, 37° C., 10 h) was 12.5 µg/mL. Besides, the “MIC (μg/mL) E. cloacae” value in test [7] (Enterobacter cloacae, 96-well plate, 37° C., 10 h) amounted to 25 µg/mL. Also, the “MIC (μg/mL) K. pneumonia” value in test [8] (Klebsiella pneumonia, 96-well plate, 37° C., 10 h) amounted to 50 µg/mL. Moreover, the “MIC (μg/mL) M. catarrhalis” value in test [9] (Moraxella catarrhalis, 96-well plate, 37° C., 10 h) came out at 50 µg/mL. For the same substance, the “MIC (μg/mL) C. diversus” value in [10] (Citrobacter diversus, 96-well plate, 37° C., 10 h) is 50 µg/mL. Further, the MIC in [11] turned out to be 25 µg/mL.
